Reference: US20240423988A1, “Improvement of Tumor Immunogenicity by Means of Splicing-Controlling Compound” (Kyoto University, priority 2021, published 2024)

Assays:
MC38 cells = assay: RNA-seq analysis of RNA splicing patterns in MC38 cells; type: cell-based, murine
Protocol: [FIG. 4-1] FIG. 4. Identification of Compound 1-inducible splice-neoantigen candidates using RNA-seq analysis. A: A diagram of enhanced tumor immunity through compound 1-induced splice-neoantigens. B: A scheme for the screening of Compound 1-induced splice-neoantigen candidates through transcriptome analysis and prediction for MHC class I presentation. RNA-seq was conducted for MC38 cells treated with 10 μM Compound 1 or 0.1% DMSO for 6 hours in three biological replicates each. RNA-seq analysis was performed as detailed in the “Experimental Methods” section.
Aberrant selective splicing events in cancer cells may become a source of potential neoantigens. As it was confirmed that MHC class I in cancer cells is indispensable for the antitumor effects of Compound 1, Compound 1 was predicted to alter aberrant alternative splicing events and enhance the production of splice-neoantigens (FIG. 4-1A). To validate this concept, RNA-seq analysis was performed to assess RNA splicing patterns affected by Compound 1 in MC38 cells and splice products yielding potential neoantigens capable of binding to MHC class I (FIG. 4-1B). […] Next, to identify neoepitopes translating potential splice-neoantigens, splicing events elicited by Compound 1 that created abnormal coding sequences were extracted, and subsequently, whether these events create abnormal peptides were checked by comparing them with a reference peptide database.
With this approach, 169 Compound 1-induced non-annotated splice events for 130 genes were identified as neoantigen candidates, which were further subjected to prioritization based on the prediction scores for the binding affinity of each peptide to MHC class I alleles (H2-K^b and H2-D^b) with NetMHCpan4.1, the extents of splice rates, and mRNA expression (FIG. 4-2C).
RNA-Seq libraries were prepared using a TruSeq Stranded mRNA Library Kit (Illumina, San Diego, CA) and used for paired-end sequencing on an Illumina NovaSeq 6000 platform. RNA-seq data were mapped to the GRCm38 (mm10) genome sequence using HISAT2 program version 2.2.0 with the “--rna-strandness RF” option. Splice-junction information available from Ensembl gene annotation version 100 was used in this process. Mapped results were discarded when either of the paired reads was not mapped to the genome, or the relationships of mapping positions were abnormal.
For splicing analysis, rMATS program version 4.1.0 was used. For the reference transcript models used in the rMATS analysis, a set of new transcripts based on RNA-seq data was constructed using Cufflinks program version 2.2.1. Because the rMATS program skips soft-clipped reads and reads having indels in their alignment, bam files were modified to replace soft clipping and indel information as not changing the splice position information. After rMATS analysis, altered splicing events were extracted according to the following criteria: FDR<0.01, dPSI≥5.0, and average number of spliced reads≥15 in either of the samples.
Spliced regions were compared with Ensembl gene annotations for describing the amino acid sequence encoded in these regions. Amino acid sequences not observed in the original peptide database were searched and stored with seven amino acids margins from known sequences.

[1] = tested on: colon, lung, and liver tissues; assay: RNA-seq of normal tissues from Compound 1-administered mice; type: in vivo
Text: In addition, the RNA-seq data corresponding to colon, lung, and liver tissues from Compound 1-administered mice was also examined to analyze the extent of splicing alterations. […] Considering that immune responses were not triggered by Compound 1 in these tissues, these altered splicing events in normal tissues were likely irrelevant to immunogenicity (FIGS. 2-2I to 2-3M).

In the case of `Clc1nc(NCc2ccco2)c2[nH]cnc2n1` [Compound 1], the “exonization induced in neurofibromin 1 (Nf1)” value (MC38 cells) is reported as 108 bp, the “genes with induced non-annotated splice events” value (MC38 cells; 10 μM, 6 hours) is reported as 130 and the “induced non-annotated splice events identified as neoantigen candidates” value (MC38 cells; 10 μM, 6 hours) is reported as 169. For the same molecule, the “mRNA expression and splicing patterns of H2-K^b and PD-L1” value (MC38 cells; RNA-seq data) was “not significantly altered”, the “mRNA expression of genes encoding conventional neoantigens” value (MC38 cells; data not shown) was “no effect” and the “induced splicing events fewer in normal tissues than in MC38 cells” value ([1]; colon, lung, liver) was 50-60%. The “validated splice-neoantigen forms in normal tissues” value ([1]; data not shown) was “none of the validated splice-neoantigen forms were significantly induced”.
